Measurements published in the NIST ThermoML archive (doi:10.1016/j.fluid.2019.05.003).

Test: xn = mol fraction of the nth substance listed
Conditions: 101 kPa, Liquid; for mass density: Vibrating tube method; for viscosity: Falling or rolling sphere viscometry

CC[N+](C)(C)CCO.[Br-] [ethyl(2-hydroxyethyl)dimethylammonium bromide] + O
Conditions | mass density [kg/m3] | viscosity [mPa·s]
323.15 K, x1 = 0.026 | 1050.7 | –
323.15 K, x1 = 0.049 | 1091.4 | –
323.15 K, x1 = 0.068 | 1120.1 | –
323.15 K, x1 = 0.086 | 1142.5 | –
323.15 K, x1 = 0.119 | 1177.1 | –
323.15 K, x1 = 0.156 | 1205.9 | –
323.15 K, x1 = 0.185 | 1224.1 | –
323.15 K, x1 = 0.214 | 1239.6 | –
323.15 K, x1 = 0.257 | 1258.7 | –
323.15 K, x1 = 0.319 | 1279 | –
328.15 K, x1 = 0.026 | 1048.6 | 0.72
328.15 K, x1 = 0.049 | 1088.9 | 0.902
328.15 K, x1 = 0.068 | 1117.2 | 1.132
328.15 K, x1 = 0.086 | 1139.7 | 1.382
328.15 K, x1 = 0.119 | 1174.2 | 2.034
328.15 K, x1 = 0.156 | 1203 | 2.962
328.15 K, x1 = 0.185 | 1221.2 | 4.143
328.15 K, x1 = 0.214 | 1236.6 | 5.498
328.15 K, x1 = 0.257 | 1255.7 | 8.108
328.15 K, x1 = 0.319 | 1276 | 12.84
333.15 K, x1 = 0.026 | 1046.5 | 0.669
333.15 K, x1 = 0.049 | 1085.9 | 0.837
333.15 K, x1 = 0.068 | 1114.5 | 1.046
333.15 K, x1 = 0.086 | 1136.8 | 1.273
333.15 K, x1 = 0.119 | 1171.2 | 1.857
333.15 K, x1 = 0.156 | 1200.1 | 2.679
333.15 K, x1 = 0.185 | 1218.2 | 3.576
333.15 K, x1 = 0.214 | 1233.6 | 4.864
333.15 K, x1 = 0.257 | 1252.7 | 7.142
333.15 K, x1 = 0.319 | 1273 | 11.49
338.15 K, x1 = 0.026 | 1044.3 | 0.632
338.15 K, x1 = 0.049 | 1083.9 | 0.786
338.15 K, x1 = 0.068 | 1112.2 | 0.965
338.15 K, x1 = 0.086 | 1134.1 | 1.174
338.15 K, x1 = 0.119 | 1168.1 | 1.707
338.15 K, x1 = 0.156 | 1197.1 | 2.439
338.15 K, x1 = 0.185 | 1215.2 | 3.122
338.15 K, x1 = 0.214 | 1230.6 | 4.315
338.15 K, x1 = 0.257 | 1249.7 | 6.33
338.15 K, x1 = 0.319 | 1270 | 10.29
343.15 K, x1 = 0.026 | 1042.2 | 0.588
343.15 K, x1 = 0.049 | 1081.4 | 0.737
343.15 K, x1 = 0.068 | 1109.6 | 0.906
343.15 K, x1 = 0.086 | 1131.4 | 1.112
343.15 K, x1 = 0.119 | 1165.6 | 1.569
343.15 K, x1 = 0.156 | 1194 | 2.202
343.15 K, x1 = 0.185 | 1212.1 | 2.835
343.15 K, x1 = 0.214 | 1227.6 | 3.849
343.15 K, x1 = 0.257 | 1246.6 | 5.548
343.15 K, x1 = 0.319 | 1266.9 | 9.319
348.15 K, x1 = 0.026 | 1040.1 | 0.56
348.15 K, x1 = 0.049 | 1078.9 | 0.679
348.15 K, x1 = 0.068 | 1107 | 0.853
348.15 K, x1 = 0.086 | 1128.3 | 1.071
348.15 K, x1 = 0.119 | 1162.8 | 1.454
348.15 K, x1 = 0.156 | 1190.9 | 2.022
348.15 K, x1 = 0.185 | 1209.4 | 2.576
348.15 K, x1 = 0.214 | 1224.5 | 3.479
348.15 K, x1 = 0.257 | 1243.6 | 4.96
348.15 K, x1 = 0.319 | 1263.9 | 8.658
